Results taken from the supplement of paper PMC10307832.

Key:
Assay in all cases: relative viability (nuclei count vs DMSO), 5 days (fraction); higher = more cells survive
Trametinib + Pemetrexed = compound: CC(=O)Nc1cccc(-n2c(=O)n(C3CC3)c(=O)c3c(Nc4ccc(I)cc4F)n(C)c(=O)c(C)c32)c1 [Trametinib] + Nc1nc2[nH]cc(CCc3ccc(C(=O)N[C@@H](CCC(=O)O)C(=O)O)cc3)c2c(=O)[nH]1 [Pemetrexed] (partner 0.2 µM)
Summary of the method: (§1)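 Lung cancer cell lines in 1536-well plates were dosed by pin tool the day after seeding, either with one drug alone or with a fixed anchor-drug dose plus five library-drug doses (not always all listed) in √10 steps. After 5 days, cells were fixed and their nuclei stained in one step (final 0.05% Triton X-100, 1% formaldehyde, 1 ug/ml Hoechst), then counted on 4× images. Relative viability is the nuclei count in treated wells divided by that in vehicle wells. Values are medians of duplicate plates.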

Trametinib + Palbociclib = compound: CC(=O)Nc1cccc(-n2c(=O)n(C3CC3)c(=O)c3c(Nc4ccc(I)cc4F)n(C)c(=O)c(C)c32)c1 [Trametinib] + CC(=O)c1c(C)c2cnc(Nc3ccc(N4CCNCC4)cn3)nc2n(C2CCCC2)c1=O [Palbociclib] (partner 0.5 µM)
Summary of the method: as §1

[1] = compound: CN1C=C(C2=CC=CC=C21)/C=C\3/C4=C(C=CC=N4)NC3=O + CC(C)C[C@H](NC(=O)[C@H](Cc1ccccc1)NC(=O)c1cnccn1)B(O)O [Bortezomib] (partner 0.002 µM)
Summary of the method: as §1

[2] = compound: CN1C=C(C2=CC=CC=C21)/C=C\3/C4=C(C=CC=N4)NC3=O + CS(=O)(=O)CCNCc1ccc(-c2ccc3ncnc(Nc4ccc(OCc5cccc(F)c5)c(Cl)c4)c3c2)o1 [Lapatinib] (partner 2 µM)
Summary of the method: as §1

Cell Line	relative viability (Trametinib + Pemetrexed; first compound 0.0025 µM)	relative viability (Trametinib + Pemetrexed; first compound 0.007906 µM)	relative viability (Trametinib + Pemetrexed; first compound 0.025 µM)	relative viability (Trametinib + Pemetrexed; first compound 0.07906 µM)	relative viability (Trametinib + Pemetrexed; first compound 0.25 µM)	relative viability (Trametinib + Palbociclib; first compound 0.0025 µM)	relative viability (Trametinib + Palbociclib; first compound 0.007906 µM)	relative viability (Trametinib + Palbociclib; first compound 0.025 µM)	relative viability (Trametinib + Palbociclib; first compound 0.07906 µM)	relative viability (Trametinib + Palbociclib; first compound 0.25 µM)	relative viability ([1]; first compound 0.02 µM)	relative viability ([1]; first compound 0.06325 µM)	relative viability ([1]; first compound 0.2 µM)	relative viability ([1]; first compound 0.6325 µM)	relative viability ([1]; first compound 2 µM)	relative viability ([2]; first compound 0.02 µM)	relative viability ([2]; first compound 0.06325 µM)	relative viability ([2]; first compound 0.2 µM)	relative viability ([2]; first compound 0.6325 µM)	relative viability ([2]; first compound 2 µM)
SK-LU-1	0.951	0.866	0.822	0.582	0.353	0.416	0.319	0.307	0.296	0.259	0.806	0.892	0.908	0.858	1.39	0.662	0.788	0.854	0.886	1.2
NCI-H322M	0.581	0.556	0.544	0.417	0.435	0.448	0.428	0.404	0.43	0.431	1.22	1.28	1.22	1.31	1.25	0.566	0.631	0.597	0.548	0.631
NCI-H2405	0.995	0.947	0.464		0.554	0.527	0.58	0.419		0.281	0.997	0.874		0.892	1	1.03	1.02	0.749	1.06	1.03
NCI-H1666	0.881	0.742	0.753	0.695	0.693	0.695	0.662	0.665	0.66	0.686	1	0.77	0.542	0.692	0.709	0.781	0.606	0.512	0.599	0.532
H3255	0.538	0.506	0.514	0.473	0.463	0.339	0.356	0.357	0.342	0.365	0.935	0.843	0.704	0.701	0.655	0.267	0.269	0.205	0.232	0.209
NCI-H2347	0.425	0.44	0.362	0.302	0.337	0.372	0.363	0.324	0.316	0.291	0.976	1.01	0.906	0.615	1	0.953	1.02	0.876	0.793	0.881
HCC-15	0.21	0.221	0.227	0.186	0.221	0.704	0.427	0.307	0.232	0.222	0.972	0.939	1.09	1.09	1.18	0.827	0.71	0.903	0.886	0.932
SW 1573	0.732	0.76	0.538	0.555	0.331	0.36	0.301	0.298	0.158	0.17	1.02	0.904	1.11	1.11	1	1.17	0.905	0.921	1.07	1.18
